In this assay the target is T1, recombinant PfA-M1 (Plasmodium falciparum, UniProt O96935).
T1 sequence (O96935 1-1085): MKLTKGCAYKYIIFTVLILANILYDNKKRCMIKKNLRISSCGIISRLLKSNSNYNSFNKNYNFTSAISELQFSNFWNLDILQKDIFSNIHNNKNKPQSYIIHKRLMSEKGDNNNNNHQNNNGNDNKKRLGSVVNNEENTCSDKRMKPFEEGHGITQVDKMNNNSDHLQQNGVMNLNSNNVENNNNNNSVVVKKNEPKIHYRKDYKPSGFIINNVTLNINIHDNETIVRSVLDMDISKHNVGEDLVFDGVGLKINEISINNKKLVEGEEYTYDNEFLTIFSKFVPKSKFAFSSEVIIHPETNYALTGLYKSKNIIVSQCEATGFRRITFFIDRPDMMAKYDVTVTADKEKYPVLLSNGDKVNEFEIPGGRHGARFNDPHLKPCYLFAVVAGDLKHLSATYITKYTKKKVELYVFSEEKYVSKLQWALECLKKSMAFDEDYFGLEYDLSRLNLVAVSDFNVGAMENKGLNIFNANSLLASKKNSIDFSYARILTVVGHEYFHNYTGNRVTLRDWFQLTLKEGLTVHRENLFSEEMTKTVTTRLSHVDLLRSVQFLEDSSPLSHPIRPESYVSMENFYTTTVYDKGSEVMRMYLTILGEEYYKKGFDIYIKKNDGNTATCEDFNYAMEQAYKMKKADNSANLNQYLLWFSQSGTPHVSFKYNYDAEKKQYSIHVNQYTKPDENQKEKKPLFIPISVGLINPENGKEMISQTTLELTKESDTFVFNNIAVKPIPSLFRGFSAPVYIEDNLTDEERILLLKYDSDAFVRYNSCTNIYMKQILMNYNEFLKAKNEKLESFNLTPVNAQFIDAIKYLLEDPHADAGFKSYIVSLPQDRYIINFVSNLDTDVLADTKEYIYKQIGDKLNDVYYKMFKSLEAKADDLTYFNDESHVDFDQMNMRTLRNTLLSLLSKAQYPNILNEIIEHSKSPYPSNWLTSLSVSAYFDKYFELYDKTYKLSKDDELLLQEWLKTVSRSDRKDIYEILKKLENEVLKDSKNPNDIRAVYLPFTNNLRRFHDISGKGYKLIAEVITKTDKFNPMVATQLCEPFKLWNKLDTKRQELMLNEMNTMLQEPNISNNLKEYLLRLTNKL
Format: biochemical. The conditions noted are these: read-out: Ki (nM) PfA-M1; P1' derivatives; assays at 8 inhibitor concentrations spanning 0.3 30 μM.

As to `N[C@H](Cc1ccccc1)[C@H](O)C(=O)N[C@@H](Cc1ccc2ccccc2c1)C(=O)O` [compound 5, PheNaphOH], the Ki was greater than 30000 nM. As for `N[C@H](Cc1ccccc1)[C@H](O)C(=O)N[C@@H](Cc1ccc(-c2ccccc2)cc1)C(=O)O` [compound 6, PheBipOH], the inhibition constant (Ki) was greater than 30000 nM.

A word on the Ki: it is a measure of affinity in units of concentration, obtained from inhibition or displacement.

The values above are taken from publication PMC3516848 (Journal of medicinal chemistry, 2011).
